Assay results as given in patent publication US6610689B2, “HIV protease inhibitors based on amino acid derivatives” (priority 2001, dated 2003).
Counter-ions that a name gives are not always drawn. Like-named read-outs stand apart in the source and are kept apart here.

Biological target: T1, HIV protease (Human immunodeficiency virus type 1 group M subtype B, UniProt P04585)
T1 construct: A third viral enzyme known as protease then cleaves the polyproteins
Assay: Enzymatic Assay for Determining the Inhibition Constant (Ki) of Synthetic Compounds Targeting the HIV Protease (fluorometric FRET assay)
Type: biochemical
Outline: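 Ki obtained via the Henderson equation from enzyme velocities with and without compound, accounting for substrate concentration and Km. Activity followed by FRET fluorescence from cleavage of a substrate flanked by EDANS donor and DABCYL acceptor.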

[1] = Table 1, compounds of formula I, read-out: Ki (anti-protease activity)

SMILES | Ki [nM] | Ki [1] [nM]
COc1ccc(CC(=O)N[C@@H](Cc2c[nH]c3ccccc23)C(=O)NCCCC[C@@H](C(=O)O)N(CC(C)C)S(=O)(=O)c2ccc(C)cc2)cc1 [Example 164, Nα-Isobutyl-Nα-(4-methylbenzenesulfonyl)-Nε-[N′α-(4-methoxyphenylacetyl)-L-tryptophanyl]-L-lysine] | 0.32 | 
COc1ccc(CC(=O)N[C@@H](Cc2c[nH]c3ccccc23)C(=O)NCCCC[C@@H](CO)N(CC(C)C)S(=O)(=O)c2ccc(C)cc2)cc1 [Example 165, (2S,2′S) 2-N-Isobutyl-2-N-(4-methylbenzenesulfonyl)-6-N-[N′α-(4-methoxyphenylacetyl)-S-tryptophanyl]-2,6-diaminohexanol] | 1.1 | 
CC(C)CN([C@H](CO)CCCCNC(=O)[C@H](Cc1c[nH]c2ccccc12)NS(=O)(=O)c1cccs1)S(=O)(=O)c1ccc(N)cc1 [Example 166, (2S,2′S) 2-N-(4-Aminobenzenesulfonyl)-2-N-isobutyl-6-N-[N′α-(2-thiophenesulfonyl)-S-tryptophanyl]-2,6-diaminohexanol] | 1 | 
CC(C)CN([C@H](CO)CCCCNC(=O)[C@H](Cc1c[nH]c2ccccc12)NS(=O)(=O)c1ccccc1)S(=O)(=O)c1ccc(N)cc1 [Example 167, (2S,2′S) 2-N-(4-Aminobenzenesulfonyl)-2-N-isobutyl-6-N-(N′α-benzenesulfonyl-S-tryptophanyl)-2,6-diaminohexanol] | 1.5 | 
CC(=O)N[C@@H](Cc1c[nH]c2ccccc12)C(=O)NCCCC[C@@H](CO)N(CC(C)C)S(=O)(=O)c1ccc(N)cc1 [Example 168, (2S,2′S) 2-N-(4-Aminobenzenesulfonyl)-2-N-isobutyl-6-N-(N′α-acetyl-S-tryptophanyl)-2,6-diaminohexanol] | 3.8 | 
CC(C)CN([C@H](CO)CCCCNC(=O)[C@H](Cc1c[nH]c2ccccc12)NC(=O)C(C)(C)C)S(=O)(=O)c1ccc(N)cc1 [Example 169, (2S,2′S) 2-N-(4-Aminobenzenesulfonyl)-2-N-isobutyl-6-N-(N′α-pivaloyl-S-tryptophanyl)-2,6-diaminohexanol] | 1.2 | 
CC(C)CN([C@H](CO)CCCCNC(=O)[C@H](Cc1c[nH]c2ccccc12)NC(=O)N1CCOCC1)S(=O)(=O)c1ccc(N)cc1 [Example 170, (2S,2′S) 2-N-(4-Aminobenzenesulfonyl)-2-N-isobutyl-6-N-[N′α-(4-morpholinecarbonyl)-S-tryptophanyl]-2,6-diaminohexanol] |  | 1.1
Cc1ccc(S(=O)(=O)N(CC(C)C)[C@H](CO)CCCCNC(=O)[C@H](Cc2c[nH]c3ccccc23)NC(=O)N2CCOCC2)cc1 [Example 171, (2S,2′S) 2-N-Isobutyl-2-N-(4-methylbenzenesulfonyl)-6-N-[N′α-(4-morpholinecarbonyl)-S-tryptophanyl]-2,6-diaminohexanol] | 7.9 | 
COc1ccc(S(=O)(=O)N(CC(C)C)[C@H](CO)CCCCNC(=O)[C@H](Cc2c[nH]c3ccccc23)NC(C)=O)cc1 [Example 172, (2S,2′S) 2-N-Isobutyl-2-N-(4-methoxybenzenesulfonyl)-6-N-(N′α-acetyl-S-tryptophanyl)-2,6-diaminohexanol] | > 300 | 
COc1ccc(S(=O)(=O)N(CC2CCCC2)[C@H](CO)CCCCNC(=O)[C@H](Cc2c[nH]c3ccccc23)NC(C)=O)cc1 [Example 173, (2S,2′S) 2-N-Cyclopentylmethyl-2-N-(4-methoxybenzenesulfonyl)-6-N-(N′α-acetyl-S-tryptophanyl)-2,6-diaminohexanol] | 11 | 
COc1ccc(CN(CC(=O)NCCCC[C@@H](C(=O)O)N(CC(C)C)S(=O)(=O)c2ccc(C)cc2)c2ccccc2)cc1 [Example 174, Nα-Isobutyl-Nα-(4-methylbenzenesulfonyl)-Nε-[N′α-(4-methoxybenzyl)-N′α-phenylglycyl]-L-lysine] | 1.4 | 
COc1ccc(CN(CC(=O)NCCCC[C@@H](CO)N(CC(C)C)S(=O)(=O)c2ccc(C)cc2)c2ccccc2)cc1 [Example 175, (2S) 2-N-Isobutyl-2-N-(4-methylbenzenesulfonyl)-6-N-[N′α-(4-methoxybenzyl)-N′α-phenylglycyl]-2,6-diaminohexanol] | 6.3 | 
COc1ccc(CN(CC(=O)NCCCC[C@@H](CO)N(CC(C)C)S(=O)(=O)c2ccc(N)cc2)c2ccccc2)cc1 [Example 176, (2S) 2-N-(4-Aminobenzenesulfonyl)-2-N-isobutyl-6-N-[N′α-(4-methoxybenzyl)-N′α-phenylglycyl]-2,6-diaminohexanol] | 2.4 | 
COC(=O)N[C@@H](Cc1ccccc1)C(=O)NCCCC[C@@H](CO)N(CC(C)C)S(=O)(=O)c1ccc(N)cc1 [Example 177, (2S,2′S) 2-N-(4-Aminobenzenesulfonyl)-2-N-isobutyl-6-N-(N′α-methoxycarbonyl-S-phenylalanyl)-2,6-diaminohexanol] | 6.6 | 
COC(=O)N[C@@H](Cc1c[nH]c2ccccc12)C(=O)NCCCC[C@@H](CO)N(CC(C)C)S(=O)(=O)c1ccc(N)cc1 [Example 178, (2S,2′S) 2-N-(4-Aminobenzenesulfonyl)-2-N-isobutyl-6-N-(N′α-methoxycarbonyl-S-tryptophanyl)-2,6-diaminohexanol] | 2 | 
CC(C)CN([C@H](CO)CCCCNC(=O)[C@H](Cc1c[nH]c2ccccc12)NS(=O)(=O)c1ccc([N+](=O)[O-])cc1)S(=O)(=O)c1ccc(N)cc1 [Example 179, (2S,2′S) 2-N-(4-Aminobenzenesulfonyl)-2-N-isobutyl-6-N-[N′α-(4-nitrobenzenesulfonyl)-S-tryptophanyl]-2,6-diaminohexanol] | 32 | 
CC(C)CN([C@H](CO)CCCCNC(=O)[C@H](Cc1ccccc1)NC(=O)N1CCOCC1)S(=O)(=O)c1ccc(N)cc1 [Example 180, (2S,2′S) 2-N-(4-Aminobenzenesulfonyl)-2-N-isobutyl-6-N-[N′α-(4-morpholinecarbonyl)-S-phenylalanyl]-2,6-diaminohexanol] | 2.4 | 
CC(C)CN(CC(=O)NCCCC[C@@H](CO)N(CC(C)C)S(=O)(=O)c1ccc(N)cc1)c1ccccc1 [Example 181, (2S) 2-N-(4-Aminobenzenesulfonyl)-2-N-isobutyl-6-N-(N′α-isobutyl-N′α-phenylglycyl)-2,6-diaminohexanol] |  | 16
CC(C)CN([C@H](CO)CCCCNC(=O)CN(Cc1ccccc1)c1ccccc1)S(=O)(=O)c1ccc(N)cc1 [Example 182, (2S) 2-N-(4-Aminobenzenesulfonyl)-2-N-isobutyl-6-N-(N′α-benzyl-N′α-phenylglycyl)-2,6-diaminohexanol] | 2.4 | 
Cc1ccc(S(=O)(=O)N(CC(C)C)[C@H](CO)CCCCNC(=O)[C@@H](N)Cc2c[nH]c3ccccc23)cc1 [Example 183, (2S,2′S) 2-N-Isobutyl-2-N-(4-methylbenzenesulfonyl)-6-N-(S-tryptophanyl)-2,6-diaminohexanol Trifluoroacetic Acid Salt] |  | 4.4
CC(C)CN([C@H](CO)CCCCNC(=O)[C@H](Cc1c[nH]c2ccccc12)NC(=O)C(C)C)S(=O)(=O)c1ccc(N)cc1 [Example 184, (2S,2′S) 2-N-(4-Aminobenzenesulfonyl)-2-N-isobutyl-6-N-(N′α-isobutyryl-S-tryptophanyl)-2,6-diaminohexanol] | 1.6 | 
CC(C)CN([C@H](CO)CCCCNC(=O)[C@H](Cc1c[nH]c2ccccc12)NC(=O)CC(C)(C)C)S(=O)(=O)c1ccc(N)cc1 [Example 185, (2S,2′S) 2-N-(4-Aminobenzenesulfonyl)-2-N-isobutyl-6-N-(N′α-tert-butylacetyl-S-tryptophanyl)-2,6-diaminohexanol] | 3.1 | 
CC(C)CN(C(CO)CCCCNC(=O)C(Cc1c[nH]c2ccccc12)NC(=O)c1ccccc1)S(=O)(=O)c1ccc(N)cc1 [Example 186, (2S,2′S) 2-N-(4-Aminobenzenesulfonyl)-2-N-isobutyl-6-N-(N′α-benzoyl-S-tryptophanyl)-2,6-diaminohexanol] | 1.7 | 
CC(C)CN([C@H](CO)CCCCNC(=O)[C@H](Cc1c[nH]c2ccccc12)NS(=O)(=O)c1ccc(N)cc1)S(=O)(=O)c1ccc(N)cc1 [Example 187, (2S,2′S) 2-N-(4-Aminobenzenesulfonyl)-2-N-isobutyl-6-N-[N′α-(4-aminobenzenesulfonyl)-S-tryptophanyl]-2,6-diaminohexanol] | 0.2 | 
Cc1ccc(S(=O)(=O)N(CC(C)C)[C@H](CO)CCCCNC(=O)[C@H](CC#N)NS(=O)(=O)c2ccccc2)cc1 [Example 188, (2S,2′S) 2-N-Isobutyl-2-N-(4-methylbenzenesulfonyl)-6-N-(N′α-benzenesulfonyl-S-cyanoalanyl)-2,6-diaminohexanol] | 79 | 
Cc1ccc(S(=O)(=O)N(CC(C)C)[C@@H](CCCCNC(=O)[C@H](Cc2c[nH]c3ccccc23)NS(=O)(=O)c2ccccc2)C(N)=O)cc1 [Example 189, Nα-Isobutyl-Nα-(4-methylbenzenesulfonyl)-Nε-(N′α-benzenesulfonyl-L-tryptophanyl)-L-lysine Amide] | 1.9 | 
COC(=O)N[C@@H](Cc1c[nH]c2ccccc12)C(=O)NCCCC[C@@H](CO)N(CC(C)C)S(=O)(=O)c1ccc(C)cc1 [Example 190, (2S,2′S) 2-N-Isobutyl-2-N-(4-methylbenzenesulfonyl)-6-N-(N′α-methoxycarbonyl-S-tryptophanyl)-2,6-diaminohexanol] | 2.2 | 
Cc1ccc(S(=O)(=O)N(CC(C)C)[C@H](CO)CCCCNC(=O)[C@H](Cc2c[nH]c3ccccc23)NC(=O)c2ccccc2)cc1 [Example 191, (2S,2′S) 2-N-Isobutyl-2-N-(4-methylbenzenesulfonyl)-6-N-(N′α-benzoyl-S-tryptophanyl)-2,6-diaminohexanol] | 3.8 | 
Cc1ccc(S(=O)(=O)N(CC(C)C)[C@H](CO)CCCCNC(=O)[C@H](Cc2c[nH]c3ccccc23)NC(=O)OCC(C)C)cc1 [Example 192, (2S,2′S) 2-N-Isobutyl-2-N-(4-methylbenzenesulfonyl)-6-N-(N′α-isobutoxycarbonyl-S-tryptophanyl)-2,6-diaminohexanol] | 4.5 | 
